Source: patent publication US20240067651A1 (Biohaven Therapeutics Ltd., priority 2019, published 2024)

What was measured:
[1] = Stability in Simulated Gastric Fluid (SGF); assay type: in vitro ADME; set-up: key: % parent compound remaining relative to 0-minute sample
In short: (§1)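 2 μg/mL final; SGF + pepsin pH 1.2 or SIF + pancreatin pH 6.8; 37° C, 150 rpm, 0–60 min. ACN quench with propranolol IS, LC-MS/MS. % parent vs 0 min; t1/2 from ln plot.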

Plasma Stability = assay type: in vitro ADME, human
In short: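 Parent compound quantified by LC-MS/MS after acetonitrile precipitation, reported as percent of control remaining (triplicate). Incubation: 1 hour, 37° C, fresh human plasma, compound at 1 μM.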

[2] = Stability in Simulated Intestinal Fluid (SIF); assay type: in vitro ADME; set-up: key: % parent compound remaining relative to 0-minute sample
In short: as §1

[3] = Caco-2 Permeability Assay; assay type: in vitro ADME, human; conditions: human
In short: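 Bidirectional transport at 37 °C for 90 min, 10 μM donor concentration, with or without Pgp inhibitor, across 21-day Caco-2 monolayers with TEER >600 […] in HEPES-buffered HBSS, pH 7.4. LC-MS/MS of donor and receiver samples gives Papp, B→A/A→B efflux ratio and mass recovery.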

[4] = % remaining at 1 h in simulated gastric fluid
[5] = % remaining at 1 h in human plasma
[6] = % remaining at 1 h in simulated intestinal fluid
[7] = Caco-2, pH 7.4, Caco-2 monolayer
[8] = % @ 1 h (remaining) in simulated gastric fluid
[9] = % @ 1 h (remaining) in human plasma
[10] = % @ 1 h (remaining) in simulated intestinal fluid
[11] = % remaining at 1 h, SGF with pepsin pH 1.2, 2 μg/mL, 37° C.
[12] = % remaining at 1 h, human plasma, 1 μM, 37° C.
[13] = % remaining at 1 h, SIF with pancreatin pH 6.8, 2 μg/mL, 37° C.
[14] = Caco-2, pH 7.4, donor 10 μM, 90 minutes, 37° C., direction not given

## CC(C)C[C@H](N)C(=O)OCn1ccc2c1c(=O)n(CO)c(=S)n2CCOC(C)C.O=C(O)C(F)(F)F [Example 323, trifluoroacetic acid [3-(hydroxymethyl)-4-oxo-1-[2-(propan-2-yloxy)ethyl]-2-sulfanylidene-1H,2H,3H,4H,5H-pyrrolo[3,2-d]pyrimidin-5-yl]methyl (2S)-2-amino-4-methylpentanoate]
[1]; % remaining @ 1 h
  SGF: 95%@ 1 h
Plasma Stability; % remaining @ 1 h
  human Plasma stability: 12%@ 1 h
[2]; % remaining @ 1 h
  SIF: 52%@ 1 h
[3]; Caco-2, pH 7.4
  Papp at 90 min, 10 µM: < 0.355 ×10⁻⁶ cm/s

## CC(C)OCCn1c(SCOC(=O)[C@@H](NC(=O)OC(C)(C)C)C(C)C)nc(=O)c2c1ccn2COC(=O)[C@@H](NC(=O)OC(C)(C)C)C(C)C [Example 295, {[5-({[(2S)-2-{[(tert-butoxy)carbonyl]amino}-3-methylbutanoyl]oxy}methyl)-4-oxo-1-[2-(propan-2-yloxy)ethyl]-1H,4H,5H-pyrrolo[3,2-d]pyrimidin-2-yl]sulfanyl}methyl (2S)-2-{[(tert-butoxy)carbonyl]amino}-3-methylbutanoate]
[1]; % remaining @ 1 h
  SGF: 58% @ 1 h
Plasma Stability; % remaining @ 1 h
  human Plasma stability: 81% @ 1 h
[2]; % remaining @ 1 h
  SIF: 0% @ 1 h
[3]; Caco-2, pH 7.4
  Papp at 90 min, 10 µM: 17 ×10⁻⁶ cm/s

## CC(C)OCCn1c(=S)[nH]c(=O)c2c1ccn2COC(=O)OC1CN(C(=O)OC(C)(C)C)C1 [Example 125]
[1]; [4]
  SGF: 85% remaining
Plasma Stability; [5]
  human Plasma stability: 3% remaining
[2]; [6]
  SIF: 17% remaining
[3]; [7]
  Papp at 90 min, 10 µM: 24.9 ×10⁻⁶ cm/s

## CC(C)OCCn1c(SCOC(=O)CCCOC(=O)[C@H](N)Cc2ccccc2)nc(=O)c2c1ccn2COC(=O)CCCOC(=O)[C@H](N)Cc1ccccc1.O=C(O)C(F)(F)F.O=C(O)C(F)(F)F [Example 364, bis(trifluoroacetic acid) [(5-{[(4-{[(2R)-2-amino-3-phenylpropanoyl]oxy}butanoyl)oxy]methyl}-4-oxo-1-[2-(propan-2-yloxy)ethyl]-1H,4H,5H-pyrrolo[3,2-d]pyrimidin-2-yl)sulfanyl]methyl 4-{[(2R)-2-amino-3-phenylpropanoyl]oxy}butanoate]
[1]; simulated gastric fluid, remaining at 1 h
  SGF: 47% remaining
Plasma Stability; human plasma, remaining at 1 h
  human Plasma stability: 31% remaining
[2]; simulated intestinal fluid, remaining at 1 h
  SIF: 1% remaining
[3]; [7]
  Papp at 90 min, 10 µM: 0.277 ×10⁻⁶ cm/s

## CC(C)OCCn1c(SCOC(=O)N(C)C)nc(=O)c2[nH]ccc21.O=C(O)C(F)(F)F [Example 164]
[1]; [8]
  SGF: 100% @ 1 h
Plasma Stability; [9]
  human Plasma stability: 98% @ 1 h
[2]; [10]
  SIF: 99% @ 1 h
[3]; [7]
  Papp at 90 min, 10 µM: 4.2 ×10⁻⁶ cm/s

## CC(C)OCCn1c(=S)[nH]c(=O)c2c1ccn2COC(=O)CCNC(=O)OC(C)(C)C [Example 6, {4-Oxo-1-[2-(propan-2-yloxy)ethyl]-2-sulfanylidene-1H,2H,3H,4H,5H-pyrrolo[3,2-d]pyrimidin-5-yl}methyl 3-{[(tert-butoxy)carbonyl]amino}propanoate]
[1]; [11]
  SGF: 82%
Plasma Stability; [12]
  human Plasma stability: 59%
[2]; [13]
  SIF: 67%
[3]; [14]
  Papp at 90 min, 10 µM: 17.9 ×10⁻⁶ cm/s

## CC(C)OCCn1c(=S)[nH]c(=O)c2c1ccn2COC(=O)CCCCNC(=O)[C@@H](N)Cc1ccc(O)cc1.O=C(O)C(F)(F)F [Example 49]
[1]; [4]
  SGF: 99% remaining
Plasma Stability; [5]
  human Plasma stability: 1% remaining
[2]; [6]
  SIF: 92% remaining
[3]; [7]
  Papp at 90 min, 10 µM: 0.154 ×10⁻⁶ cm/s

## CC(C)OCCn1c(SCOC(=O)[C@H](NC(=O)OC(C)(C)C)C(C)C)nc(=O)c2c1ccn2COC(=O)[C@H](NC(=O)OC(C)(C)C)C(C)C [Example 299, {[5-({[(2R)-2-{[(tert-butoxy)carbonyl]amino}-3-methylbutanoyl]oxy}methyl)-4-oxo-1-[2-(propan-2-yloxy)ethyl]-1H,4H,5H-pyrrolo[3,2-d]pyrimidin-2-yl]sulfanyl}methyl (2R)-2-{[(tert-butoxy)carbonyl]amino}-3-methylbutanoate]
[1]; % remaining @ 1 h
  SGF: 54% @ 1 h
Plasma Stability; % remaining @ 1 h
  human Plasma stability: 94% @ 1 h
[2]; % remaining @ 1 h
  SIF: 27% @ 1 h
[3]; Caco-2, pH 7.4
  Papp at 90 min, 10 µM: 15.8 ×10⁻⁶ cm/s

## CC(C)OCCn1c(=S)[nH]c(=O)c2c1ccn2COC(=O)CCC(=O)OC(C)(C)C [Example 126]
[1]; [4]
  SGF: 100%
Plasma Stability; [5]
  human Plasma stability: 2% remaining
[2]; [6]
  SIF: 67% remaining
[3]; [7]
  Papp at 90 min, 10 µM: 13.5 ×10⁻⁶ cm/s

## CC(C)OCCn1c(SCOC(=O)N(C)c2ccccc2F)nc(=O)c2[nH]ccc21 [Example 239]
[1]; simulated gastric fluid, at 1 h
  SGF: 99% remaining
Plasma Stability; human plasma, at 1 h
  human Plasma stability: 85% remaining
[2]; simulated intestinal fluid, at 1 h
  SIF: 96% remaining
[3]; [7]
  Papp at 90 min, 10 µM: 11.7 ×10⁻⁶ cm/s

## CCCCNC(=O)n1ccc2c1c(=O)[nH]c(=S)n2CCOC(C)C [Example 224]
[1]; % remaining at 1 h in simulated gastric fluid, the 17th table
  SGF: 83% remaining
Plasma Stability; % remaining at 1 h in human plasma, the 17th table
  human Plasma stability: 89% remaining
[2]; % remaining at 1 h in simulated intestinal fluid, the 17th table
  SIF: 100% remaining
[3]; Caco-2, pH 7.4, Caco-2 monolayer, the 17th table
  Papp at 90 min, 10 µM: 12.6 ×10⁻⁶ cm/s

## CC[C@H](C)[C@H](N)C(=O)NCCCCC(=O)OCn1ccc2c1c(=O)[nH]c(=S)n2CCOC(C)C.O=C(O)C(F)(F)F [Example 37]
[1]; [4]
  SGF: 88% remaining
Plasma Stability; [5]
  human Plasma stability: 1% remaining
[2]; [6]
  SIF: 89% remaining
[3]; [7]
  Papp at 90 min, 10 µM: 1.09 ×10⁻⁶ cm/s

## CC(C)OCCn1c(SCOC(=O)N(C)C(C)C)nc(=O)c2c1ccn2COC(=O)N(C)C(C)C.O=C(O)C(F)(F)F [Example 171]
[1]; [8]
  SGF: 100% @ 1 h
Plasma Stability; [9]
  human Plasma stability: 97% @ 1 h
[2]; [10]
  SIF: 89% @ 1 h
[3]; [7]
  Papp at 90 min, 10 µM: 21.7 ×10⁻⁶ cm/s

## CC(C)OCCn1c(=S)[nH]c(=O)c2c1ccn2COC(=O)CCCCNC(=O)OC(C)(C)C [Example 7, {4-oxo-1-[2-(propan-2-yloxy)ethyl]-2-sulfanylidene-1H,2H,3H,4H,5H-pyrrolo[3,2-d]pyrimidin-5-yl}methyl 5-{[(tert-butoxy)carbonyl]amino}pentanoate]
[1]; [11]
  SGF: 66%
Plasma Stability; [12]
  human Plasma stability: 4%
[2]; [13]
  SIF: 40%
[3]; [14]
  Papp at 90 min, 10 µM: 14.7 ×10⁻⁶ cm/s

## COCCOCCN(C)C(=O)OCSc1nc(=O)c2[nH]ccc2n1CCOC(C)C [Example 88, ({4-Oxo-1-[2-(propan-2-yloxy)ethyl]-1H,4H,5H-pyrrolo[3,2-d]pyrimidin-2-yl}sulfanyl)methyl N-[2-(2-methoxyethoxy)ethyl]-N-methylcarbamate]
[1]; [11]
  SGF: 99%
Plasma Stability; [12]
  human Plasma stability: 100%
[2]; [13]
  SIF: 64%
[3]; [14]
  Papp at 90 min, 10 µM: 0.751 ×10⁻⁶ cm/s

## CC(C)C[C@H](N)C(=O)OCSc1nc(=O)c2c(ccn2COC(=O)[C@@H](N)CC(C)C)n1CCOC(C)C.O=C(O)C(F)(F)F.O=C(O)C(F)(F)F [Example 321, bis(trifluoroacetic acid) {[5-({[(2S)-2-amino-4-methylpentanoyl]oxy}methyl)-4-oxo-1-[2-(propan-2-yloxy)ethyl]-1H,4H,5H-pyrrolo[3,2-d]pyrimidin-2-yl]sulfanyl}methyl (2S)-2-amino-4-methylpentanoate]
[1]; % remaining @ 1 h
  SGF: 92%@ 1 h
Plasma Stability; % remaining @ 1 h
  human Plasma stability: 1%@ 1 h
[2]; % remaining @ 1 h
  SIF: 2%@ 1 h
[3]; Caco-2, pH 7.4
  Papp at 90 min, 10 µM: < 0.365 ×10⁻⁶ cm/s

## CCCC(=O)OCSc1nc(=O)c2c(ccn2COC(=O)CCC)n1CCOC(C)C [Example 155]
[1]; [8]
  SGF: 73% @ 1 h
Plasma Stability; [9]
  human Plasma stability: 1% @ 1 h
[2]; [10]
  SIF: 0% @ 1 h
[3]; [7]
  Papp at 90 min, 10 µM: 2.79 ×10⁻⁶ cm/s

## CC(C)OCCn1c(SCOC(=O)OC(C)C)nc(=O)c2[nH]ccc21 [Example 203]
[1]; % remaining at 1 h in simulated gastric fluid, the 15th table
  SGF: 99% remaining
Plasma Stability; % remaining at 1 h in human plasma, the 15th table
  human Plasma stability: 1% remaining
[2]; % remaining at 1 h in simulated intestinal fluid, the 15th table
  SIF: 63% remaining
[3]; Caco-2, pH 7.4, Caco-2 monolayer, the 15th table
  Papp at 90 min, 10 µM: 13.4 ×10⁻⁶ cm/s

## CC(C)OCCn1c(=S)n(COC(=O)c2ccccc2)c(=O)c2c1ccn2COC(=O)c1ccccc1 [Example 117, {3-[(benzoyloxy)methyl]-4-oxo-1-[2-(propan-2-yloxy)ethyl]-2-sulfanylidene-1H,2H,3H,4H,5H-pyrrolo[3,2-d]pyrimidin-5-yl}methylbenzoate]
[1]; [11]
  SGF: 100%
Plasma Stability; [12]
  human Plasma stability: 20%
[2]; [13]
  SIF: 79%
[3]; [14]
  Papp at 90 min, 10 µM: 5.76 ×10⁻⁶ cm/s
